US20050208088A1, “Pesticidal composition and method for pest control” (priority 2004, published 2005)

Tested on: thrips
Experiment: Thrips control in cotton, seed treatment field trials (1) and (2)
Assay type: in vivo, thrips on cotton
Details: for Adult Thrips 14 DAP / Immature Thrips 14 DAP / Immature Thrips 21 DAP: cotton DP 555 BR, seed treatment; for Adult Thrips 14 DAP / Immature Thrips 14 DAP: 14 days after planting; for Adult Thrips 14 DAP: number of adult thrips; for Immature Thrips 14 DAP / Immature Thrips 21 DAP: number of immature thrips; for Immature Thrips 21 DAP / Damage 21 DAP: 21 days after planting; for Damage 21 DAP: visual plant damage rating, scale 1 to 5 (1=no damage, 3=moderate damage, 5=severe damage)
Experimental: (a) A base fungicide seed treatment formulation is prepared by diluting a concentrate containing 3.32% mefenoxam (CAS# 70630-17-0), 1.11% fludioxonil (CAS# 131341-86-1) and 6.64% azoxystrobin (CAS# 131860-33-8), into water as a carrier. […] Seed treated are allowed to air dry and shipped and stored at ambient temperature prior to planting (approximately two weeks). (b) A seed treatment formulation is prepared by diluting Cruiser® […] seed treatment insecticide (Syngenta Crop Protection, Inc), which contains 49% thiamethoxam and the base fungicide concentrate described in (a), into water as a carrier. […] Seed treated are allowed to air dry and shipped and stored at ambient temperature prior to planting (approximately two weeks). (c) An abamectin seed treatment formulation is prepared by diluting an abamectin […] seed treatment nematicide formulation containing 46.3% abamectin and the base fungicide concentrate (a), into water as a carrier. […] Seed treated were allowed to air dry and were shipped and stored at ambient temperature prior to planting (approximately two weeks). The above formulations of thiamethoxam and abamectin were combined together into water as a carrier and with the base fungicide (a). […] This formulation dilution was applied for one to two minutes at ambient temperature to approximately one kilogram of Delta and Pine Land cottonseed (DP 555 BR) in a Hege seed treater. Seed treated were allowed to air dry and were shipped and stored at ambient temperature prior to planting (approximately two weeks). Control (a) and treated cottonseed (b) (c) and (d) were planted in field plots in two separate trials (1) and (2) as follows: Cottonseed is sown (4 seeds per foot) in plots with dimensions of 2 rows (36 inch row spacing) by 30-feet in a randomized complete block layout consisting of an control check (a), abamectin plus a base fungicide (c), thiamethoxam plus a base fungicide (b) and the combination of thiamethoxam and abamectin plus a base fungicide (d). […] Thrips were collected from five random plants within each replication of each treatment by collecting thrips in alcohol and counting the numbers of thrips using a dissecting scope in the laboratory.

Molecule | Adult Thrips 14 DAP (Trial (1)) [per five plants] | Immature Thrips 14 DAP (Trial (1)) [per five plants] | Immature Thrips 21 DAP (Trial (1)) [per five plants] | Damage 21 DAP (Trial (1)) | Immature Thrips 14 DAP (Trial (2)) [per five plants] | thrips control compared to the untreated check (trials 1 and 2, cotton seed treatment) [%] | thrips control (14 and 21 days after planting, cotton seed treatment)
abamectin [Abamectin (c)] | 13 | 39.25 | 50.5 | 4 | 71.5 | ~50 | 
CN1COCN(Cc2cnc(Cl)s2)/C1=N\[N+](=O)[O-] [Thiamethoxam (b), thiamethoxam] | 5 | 13 | 20.25 | 3.3 | 15 |  | approximately 85%
